Results from US20100324130A1, “DAA PERIPHERAL BENZODIAZEPINE RECEPTOR LIGAND FOR CANCER IMAGING AND TREATMENT” (priority 2006, published 2010).

What was measured:
[1] = biological target: T1, PBR protein harvested from MA-10 cells (Mus musculus, UniProt P50637); assay: Competitive binding study against [3H]PK11195 on PBR protein; conditions: amino group capped by acetyl group; [3H]PK11195 radioligand; 4° C., 90 minutes
T1 construct: PBR protein was harvested from MA-10 cells and stocked in PBS at 10 mg/mL; endogenous in cells; host or cells: MA-10 cells
Experimental: More specifically, conjugable form of DAA1106, with 3-9 carbon spacers, has been synthesized, characterized, and used in a competitive binding assay. The amino group was capped by acetyl group to reduce non-specific binding (Scheme 2).
PBR protein was harvested from MA-10 cells and stocked in PBS at 10 mg/mL. The stock solution was diluted to 30 μg/100 μL for the binding study. [^3H]PK11195 was used as radioligand and the specific activity of the stock solution was 73.6 Ci/mmole (˜11.8 μM). A diluted solution of 15 nM in PBS was prepared before use. For each of the molecules tested (NIRDAA, LissDAA and C3-9DAA1106 amide), eight concentrations of solutions from 3×10^−4M to 3×10^−11M in PBS buffer were prepared. 30 test tubes were used for the study of each molecule. 3 of them were used for total binding (100 μL 15 nM [^3H]PK11195+100 μL PBS buffer+100 μL 30 μg/100 μL PBR protein), 3 test tubes were for non-specific binding (100 μL 15 nM [^3H]PK11195+100 μL 15 μM PK11195+100 μL 30 μg/100 μL PBR protein) and the other 24 were triplicates for each doses of competitor ligand (100 μL, 15 nM [^3H]PK11195+100 μL competitor solution+100 μL 30 μg/100 μL PBR protein). All test tubes were vortexed and then incubated at 4° C. for 90 minutes. Reactions were stopped by filtration on FG/B filters using the Brandel binding apparatus through Whatman GF/B filters (Brandel, Gaithersburg, Md.). The filters (24 positions each) were preincubated in PBS/H2O containing 0.05% PEI for 20-30 minutes before filtration. The filters were then washed 5 times with PBS, put in scintillation vials, vortexed in scintillation fluid and counted. The […] and Ki (equilibrium dissociation constant) values were calculated using the PRISM program package

PBR [2] = conditions: cited from earlier work
PBR [3] = conditions: cited from earlier work; for IC50: comparison values for parent ligand
[4] = tested on: human Jurkat T lymphocyte cells (low PBR expressing); assay: Apoptosis study, CellTiter-Glo luminescent cell viability assay; format: cell-based
Experimental: (§1) Apoptosis Study Using Etoposide and EtoposideDAA 50,000 MDA-MB-231 human breast tumor (high PBR expressing) or human Jurkat T lymphocyte cells (low PBR expressing) cells/well were added to 96 well plates and incubated under standard tissue culture conditions (37° C., 5% CO2) for 24 hours. […] After three days, CellTiter-Glo luminescent cell viability assay (Promega) was added. The plates were incubated for an additional one hour and the […] was counted under Xenogen IVIS imaging system. Three wells were used for control which had cells treated with viability assay without drug. Blank […] not have cells or drug, but had viability assay. Medium samples had cells only, without drug or viability assay.

[5] = tested on: MDA-MB-231 human breast tumor (high PBR expressing) cells; assay: as above; format: cell-based; conditions: MDA-MB-231, three days
Experimental: as §1

Row | Structure (SMILES) | IC50 [1] [nM] | Ki [1] [nM] | further results
1 | COc1ccc(NCCCCCCNC(C)=O)c(CN(C(C)=O)c2cc(F)ccc2Oc2ccccc2)c1 [C6DAA1106] | 350 ± 220 | 52 ± 30 | 
2 | COc1ccc(NCCCCCCCCCNC(C)=O)c(CN(C(C)=O)c2cc(F)ccc2Oc2ccccc2)c1 [C9DAA1106] | 290 | 51 ± 17 | 
3 | COc1ccc(OC)c(CN(C(C)=O)c2cc(F)ccc2Oc2ccccc2)c1 [DAA1106] |  |  | concentration to displace PBR complexed PK11195 and Ro5-4864 (PBR [2]): 10^−15-10^−12 M; IC50 (PBR [3]): 0.28 nM; binding affinity for PBR (PBR [3]; fentomolar): 10^−15 M
4 | COc1ccc(OC)c(CN(C(C)=O)c2cc(F)ccc2Oc2ccccc2)c1 [[^11C]DAA1106] |  |  | IC50 (PBR [3]): 0.91 nM
5 | COc1cc([C@@H]2c3cc4c(cc3[C@@H](O[C@@H]3O[C@@H]5CO[C@@H](C)O[C@H]5[C@H](O)[C@H]3O)[C@H]3COC(=O)[C@H]23)OCO4)cc(OC)c1O [etoposide, reference compound] |  |  | concentration at which cells began to respond ([4]; Jurkat, three days): 10^−6 M; concentration at which cells effectively respond ([4]; Jurkat, three days): 10^−5 M; concentration at which cells were beginning to respond [5]: 10^−4 M
6 | COc1ccc(NCCCCCCNC(=O)CCOc2c(OC)cc([C@@H]3c4cc5c(cc4[C@@H](OC4OC6COC(C)OC6C(O)C4O)[C@H]4COC(=O)[C@H]34)OCO5)cc2OC)c(CN(C(C)=O)c2cc(F)ccc2Oc2ccccc2)c1 (stereo partly drawn) [etoposide-C6DAA1106] |  |  | toxicity to normal cells compared with etoposide ([4]; Jurkat (low PBR expressing)): less toxicity to normal cells than etoposide; concentration at which cells effectively respond ([4]; Jurkat, three days): 10^−4 M; concentration at which cells were beginning to respond [5]: 10^−4 M

The next lines start with results.

Row | IC50 [1] [nM] | Ki [1] [nM] | Structure (SMILES) | further results
7 | 390 | 68 ± 23 | COc1ccc(NCCCNC(C)=O)c(CN(C(C)=O)c2cc(F)ccc2Oc2ccccc2)c1 [C3DAA1106] | 
8 | 800 | 141 ± 36 | COc1ccc(NCCCCNC(C)=O)c(CN(C(C)=O)c2cc(F)ccc2Oc2ccccc2)c1 [C4DAA1106] | 
9 | 840 | 149 ± 49 | COc1ccc(NCCCCCNC(C)=O)c(CN(C(C)=O)c2cc(F)ccc2Oc2ccccc2)c1 [C5DAA1106] | 
10 | 400 | 71 ± 33 | COc1ccc(NCCCCCCCNC(C)=O)c(CN(C(C)=O)c2cc(F)ccc2Oc2ccccc2)c1 [C7DAA1106] | 
11 | 240 | 43 ± 19 | COc1ccc(NCCCCCCCCNC(C)=O)c(CN(C(C)=O)c2cc(F)ccc2Oc2ccccc2)c1 [C8DAA1106] | 
